Each structure is given as a SMILES string. pIC50: −log10 of the molar value. Bounds are passed on as bounds.

The conditions of data set [1]: mouse, microsomes, 1 h.
In data set [2] the test system is Plasmodium cynomolgi. Nature of the data set: Antiplasmodial activity against hypnozoite Plasmodium cynomolgi B strain infected in Macaca mulatta hepatocytes incubated with sporozoite containing salivary gland homogenate obtained from dissected Anopheles dirus mosquitoes (infected with Plasmodium cynomolgi B strain) treatment started on day 4 post infection and continued daily for 4 days into fresh changed media until day 8 assessed as Liver stage (LS) activity by measuring radical cure mode by immunofluorescent staining analysis. It is filed as functional, organism-based. The settings on record: Hepatocyte.

In data set [3] the test system is Plasmodium falciparum. Nature of the data set: Antiplasmodial activity against asexual blood-stage (ABS) ATV-resistant clinical isolate Plasmodium falciparum Tm90-C2B infected in human erythrocytes assessed as reduction in fluorescence measured after 72 hrs by Malaria SYBR Green I-based Fluorescence (MSF) assay. It is filed as functional, organism-based. The conditions noted are these: Erythrocyte.

The nature of data set [4]: Toxicity in CF1 mouse infected with asexual blood-stage (ABS) Plasmodium yoelii MRA-428 assessed as weight loss at 0.3 to 30 mg/kg, po treated 24 hrs post infection measured after 4 days. It is filed as organism-based. The settings on record: in vivo, 96 h, dose 0.3-30 mg/kg, time 4 day.
The test system of data set [5] is Hepatocyte. Nature of the data set: Cytotoxicity against Macaca mulatta hepatocytes assessed as cell viability measured after 48 hrs by MTT assay. It is filed as toxicity, cell-based. The settings on record: rhesus monkey, 48 h. On the technique in general: Tetrazolium dyes change colour on reduction, which living cells bring about.
Data set [6] deals with Plasmodium falciparum. Nature of the data set: Antiplasmodial activity against asexual blood-stage (ABS) CQ-sensitive Plasmodium falciparum D6 infected in human erythrocytes assessed as reduction in fluorescence measured after 72 hrs by Malaria SYBR Green I-based Fluorescence (MSF) assay. It is filed as functional, organism-based. The settings on record: D6, Erythrocyte.
The test system of data set [7] is Plasmodium cynomolgi. Nature of the data set: Antiplasmodial activity against hypnozoite Plasmodium cynomolgi B strain infected in Macaca mulatta hepatocytes incubated with sporozoite containing salivary gland homogenate obtained from dissected Anopheles dirus mosquitoes (infected with Plasmodium cynomolgi B strain) treatment started on day 4 post infection and continued daily for 4 days into fresh changed media until day 8 assessed as Liver stage (LS) activity by measuring prophylactic mode by immunofluorescent staining analysis. The data set is classed as functional, organism-based. The conditions noted are these: Hepatocyte.

A short description of data set [8]: Toxicity in CF1 mouse infected with asexual blood-stage (ABS) Plasmodium yoelii MRA-428 assessed as hunching at 0.3 to 30 mg/kg, po treated 24 hrs post infection measured after 4 days. The data set is classed as organism-based. The conditions noted are these: in vivo, 96 h, dose 0.3-30 mg/kg, time 4 day.
A short description of data set [9]: Toxicity in CF1 mouse infected with asexual blood-stage (ABS) Plasmodium yoelii MRA-428 assessed as ruffled hair at 0.3 to 30 mg/kg, po treated 24 hrs post infection measured after 4 days. The data set is classed as organism-based. The conditions noted are these: in vivo, 96 h, dose 0.3-30 mg/kg, time 4 day.
Data set [10] relates to Plasmodium cynomolgi. Briefly: Antiplasmodial activity against schizont Plasmodium cynomolgi B strain infected in Macaca mulatta hepatocytes incubated with sporozoite containing salivary gland homogenate obtained from dissected Anopheles dirus mosquitoes (infected with Plasmodium cynomolgi B strain) treatment started on day 4 post infection and continued daily for 4 days into fresh changed media until day 8 assessed as Liver stage (LS) activity by measuring prophylactic mode by immunofluorescent staining analysis. The data set is classed as functional, organism-based. The settings on record: Hepatocyte.

Data set [11] relates to HepG2. Briefly: Cytotoxicity against human HepG2 cells assessed as cell viability measured after 48 hrs by MTT assay. The data set is classed as functional, cell-based. The conditions noted are these: HepG2, 48 h.
The test system of data set [12] is Plasmodium cynomolgi. Nature of the data set: Antiplasmodial activity against schizont Plasmodium cynomolgi B strain infected in Macaca mulatta hepatocytes incubated with sporozoite containing salivary gland homogenate obtained from dissected Anopheles dirus mosquitoes (infected with Plasmodium cynomolgi B strain) treatment started on day 4 post infection and continued daily for 4 days into fresh changed media until day 8 assessed as Liver stage (LS) activity by measuring radical cure mode by immunofluorescent staining analysis. It is filed as functional, organism-based. The settings on record: Hepatocyte.

Data set [13] deals with Plasmodium falciparum. Briefly: Antiplasmodial activity against asexual blood-stage (ABS) MDR Plasmodium falciparum Dd2 infected in human erythrocytes assessed as reduction in fluorescence measured after 72 hrs by Malaria SYBR Green I-based Fluorescence (MSF) assay. The data set is classed as functional, organism-based. The settings on record: Dd2, Erythrocyte.
Data set [14] can be described thus: Selectivity index, ratio of CC50 for Macaca mulatta hepatocytes to IC50 for antiplasmodial activity against schizont Plasmodium cynomolgi B strain infected in Macaca mulatta hepatocytes incubated with sporozoite containing salivary gland homogenate obtained from dissected Anopheles dirus mosquitoes (infected with Plasmodium cynomolgi B strain) treatment started on day 4 post infection and continued daily for 4 days into fresh changed media until day 8 assessed as Liver stage (LS) activity by measuring prophylactic mode by immunofluorescent staining analysis. It is filed as toxicity, cell-based. The conditions noted are these: rhesus monkey, read-out: Selectivity Index.

A short description of data set [15]: Toxicity in CF1 mouse infected with asexual blood-stage (ABS) Plasmodium yoelii MRA-428 assessed as lethargy at 0.3 to 30 mg/kg, po treated 24 hrs post infection measured after 4 days. It is filed as organism-based. The conditions noted are these: in vivo, 96 h, dose 0.3-30 mg/kg, time 4 day.
Data set [16] can be described thus: Toxicity in CF1 mouse infected with asexual blood-stage (ABS) Plasmodium yoelii MRA-428 assessed as hyperactivity at 0.3 to 30 mg/kg, po treated 24 hrs post infection measured after 4 days. The data set is classed as organism-based. The settings on record: in vivo, 96 h, dose 0.3-30 mg/kg, time 4 day.
Data set [17] can be described thus: Selectivity index, ratio of CC50 for Macaca mulatta hepatocytes to IC50 for antiplasmodial activity against hypnozoite Plasmodium cynomolgi B strain infected in Macaca mulatta hepatocytes incubated with sporozoite containing salivary gland homogenate obtained from dissected Anopheles dirus mosquitoes (infected with Plasmodium cynomolgi B strain) treatment started on day 4 post infection and continued daily for 4 days into fresh changed media until day 8 assessed as Liver stage (LS) activity by measuring radical cure mode by immunofluorescent staining analysis. The data set is classed as toxicity, cell-based. The conditions noted are these: rhesus monkey, read-out: Selectivity Index.

Data set [18] can be described thus: Selectivity index, ratio of CC50 for Macaca mulatta hepatocytes to IC50 for antiplasmodial activity against hypnozoite Plasmodium cynomolgi B strain infected in Macaca mulatta hepatocytes incubated with sporozoite containing salivary gland homogenate obtained from dissected Anopheles dirus mosquitoes (infected with Plasmodium cynomolgi B strain) treatment started on day 4 post infection and continued daily for 4 days into fresh changed media until day 8 assessed as Liver stage (LS) activity by measuring prophylactic mode by immunofluorescent staining analysis. It is filed as toxicity, cell-based. The conditions noted are these: rhesus monkey, read-out: Selectivity Index.

The conditions of data set [19]: human, microsomes, 1 h.
Data set [20] in a line: Selectivity index, ratio of CC50 for Macaca mulatta hepatocytes to IC50 for antiplasmodial activity against schizont Plasmodium cynomolgi B strain infected in Macaca mulatta hepatocytes incubated with sporozoite containing salivary gland homogenate obtained from dissected Anopheles dirus mosquitoes (infected with Plasmodium cynomolgi B strain) treatment started on day 4 post infection and continued daily for 4 days into fresh changed media until day 8 assessed as Liver stage (LS) activity by measuring radical cure mode by immunofluorescent staining analysis. The data set is classed as toxicity, cell-based. The settings on record: rhesus monkey, read-out: Selectivity Index.

For orientation: pIC50 means the negative decadic logarithm of the IC50, by convention in mol/L. One may read the CC50 as the concentration giving 50% cytotoxicity. `CCCCN(CCCC)CCCOc1ccc2c(=O)c3c([nH]c2c1)CCCC3`: the CLH in data set [1] was over 500 µL/min/mg. The negative logarithm of the IC50 (pIC50) in [2] was under 4.70; in [3] it was 7.22; in data set [6], 8.14; in data set [7] it was under 4.70; in data set [10], 5.31; in data set [11] it was under 3.70. Further, the negative-log IC50 (pIC50) in [12] is under 4.70; in [13], 7.40. Moreover, the Activity entry in data set [4], in data set [8], in data set [9], in data set [15] and in data set [16] was “Non-toxic” each time. Besides, in data set [5], the CC50 was over 20 µM. The selectivity ratio at 96 h in [14] was over 4.06.

Consider `O=c1c2c([nH]c3cc(OCc4ccc(OC(F)(F)F)cc4)ccc13)CCCC2`, for which the CLH in data set [1] was determined as 31.9 µL/min/mg. Further, the pIC50 in data set [2] was under 4.70; in data set [3] it was 7.36; in data set [6], 8.22; in [7], under 4.70; in data set [10] it was 5.44; in [11] it was under 3.70. Besides, the negative-log IC50 (pIC50) in [12] is under 4.70; in [13], 7.56. The Activity result in [4], in data set [8], in data set [9], in [15] and in data set [16] was “Non-toxic” throughout. In addition, the CC50 in data set [5] was over 20 µM. Further, the selectivity ratio at 96 h in data set [14] is over 5.52.

Compound `O=c1c2c([nH]c3cc(OC(F)(F)F)ccc13)CCCC2` showed a CLH in data set [1] of 21.3 µL/min/mg. Also, the pIC50 in data set [2] was under 4.70; in [3], 7.23; in data set [6], 7.28; in data set [7], under 4.70; in [10], 5.40; in data set [11], under 3.70. The pIC50 in data set [12] is under 4.70; in data set [13], 7.07. For the same compound, the Activity result in data set [4], in data set [8], in data set [9], in data set [15] and in [16] was “Non-toxic” each time. Moreover, the 50% cytotoxic concentration (CC50) in data set [5] was over 20 µM. In data set [14], the selectivity ratio at 96 h was over 5.05.

As for `CCCN(CCC)CCNc1ccc2c(=O)c3c([nH]c2c1)CCCC3`, in data set [1], the CLH is over 500 µL/min/mg. The pIC50 was under 4.70 in data set [2]; under 5.60 in data set [3]; under 5.60 in data set [6]; under 4.70 in data set [7]; under 4.70 in data set [10]; under 4.70 in [12]. Further, the pIC50 in data set [13] was under 5.60. In addition, the Activity result in [4], in data set [8], in data set [9], in [15] and in data set [16] was “Non-toxic” in each case. Besides, in data set [5], the CC50 was over 20 µM.

`COc1ccc(Oc2ccc3c(=O)c4c(F)cc(Cl)cc4[nH]c3c2)cc1` displayed a CLH in data set [1] of under 3.125 µL/min/mg. The pIC50 in data set [2] is 5.22; in [3], 7.74; in data set [6], 13.23; in data set [7], 5.35; in [10] it was 6.31; in data set [11], under 3.70. Moreover, the results for the pIC50 in [12] and in data set [13] were 6.03 and 13.54, respectively. The selectivity ratio at 96 h in [17] worked out at 1.79; in data set [18], 2.4; in [20], 11.5; in [14], 22. The CC50 in [5] worked out at 10.8 µM. In data set [19], this compound displayed a t1/2 of over 1 h.

`O=c1c2c([nH]c3cc(Oc4ccccc4OC(F)(F)F)ccc13)CCCC2`: in data set [1], the CLH came out at 72.1 µL/min/mg. Moreover, the pIC50 in data set [2] is under 4.70; in data set [3] it was 9.56; in [6], 10.64; in data set [7], 5.11; in data set [10], 6.19; in data set [11], under 3.70. The negative-log IC50 (pIC50) is under 4.70 in data set [12] and 9.77 in [13]. Also, the Activity result in [4], in [8], in data set [9], in data set [15] and in data set [16] was “Non-toxic” throughout. In addition, in [5], the cytotoxic concentration (CC50) is over 20 µM. Besides, the selectivity ratio at 96 h is over 2.59 in data set [18] and over 31.2 in data set [14].

In data set [1], `CCCN(CCC)CCOc1ccc2c(=O)c3c([nH]c2c1)CCCC3` came in with a CLH of 492 µL/min/mg. The pIC50 is under 4.70 in data set [2]; 7.34 in data set [3]; 7.61 in data set [6]; under 4.70 in data set [7]; 5.01 in [10]; under 3.70 in data set [11]. Also, the figures for the pIC50 in [12] and in [13] were under 4.70 and 7.19, respectively. The Activity result in data set [4], in [8], in data set [9], in data set [15] and in data set [16] was “Non-toxic” in each case. Further, the CC50 in [5] was over 20 µM. Further, the selectivity ratio at 96 h in [14] was over 2.03.

As for `O=c1c2ccc(OCc3cccc(OC(F)(F)F)c3)cc2[nH]c2ccc(Cl)c(F)c12`, in data set [1], the CLH was determined as 21.8 µL/min/mg. Moreover, the pIC50 in data set [2] is 5.71; in data set [3], 6.74; in [6], 12.54; in data set [7], 6.62; in [10], 7.22; in [11], under 3.70. The negative logarithm of the IC50 (pIC50) is 5.49 in [12] and 12.40 in data set [13]. The selectivity ratio at 96 h was over 10.3 in data set [17], over 83.3 in data set [18], over 6.13 in [20] and over 333 in [14]. In addition, the half-maximal cytotoxic concentration (CC50) in [5] was over 20 µM. For the same compound, the t1/2 in [19] was over 1 h.

Consider `CN(C)CCOc1ccc2c(=O)c3c([nH]c2c1)CCCC3`, for which the CLH in data set [1] was over 500 µL/min/mg. Besides, the pIC50 was under 4.70 in data set [2]; under 5.60 in data set [3]; under 5.60 in data set [6]; under 4.70 in [7]; under 4.70 in data set [10]; under 4.70 in data set [12]. In addition, the pIC50 in [13] is under 5.60. Also, the Activity result in [4], in data set [8], in data set [9], in data set [15] and in [16] was “Non-toxic” throughout. Also, the 50% cytotoxic concentration (CC50) in [5] is over 20 µM.

The record behind these values is ChEMBL document CHEMBL6134844, “Development of Next-Generation Antimalarial Acridones with Radical Cure Potential” (J Med Chem, 2025).
